Test results: ChEMBL document CHEMBL1201862, “PubChem BioAssay data set” (2004)
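Grown in 96-well plates, cells were treated for 48 hours with each compound at five concentrations. Insufficient inhibition: endpoint recorded as highest concentration tested. GI50: concentration for 50% inhibition of growth.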 The source made the active and inactive calls. Rule as the data show it: active = GI50 up to about 1.1 µM and inactive = higher.

How the values were obtained:
Assay in all cases: inhibition of tumour cell growth, NCI panel, 48 h
A549 = test system: A549
BT-549 = test system: BT-549
CAKI-1 = test system: CAKI-1
CCRF-CEM = test system: CCRF-CEM
DMS-114 = test system: DMS-114
DMS-273 = test system: DMS-273
EKVX = test system: EKVX
HCC 2998 = test system: HCC 2998
HCT-116 = test system: HCT-116
HCT-15 = test system: HCT-15
HL-60 = test system: HL-60
HOP-18 = test system: HOP-18
IGROV-1 = test system: IGROV-1
K562 = test system: K562
KM-20L2 = test system: KM-20L2
LOX IMVI = test system: LOX IMVI
LXFL 529 = test system: LXFL 529
M14 = test system: M14
M19-MEL = test system: M19-MEL
MDA-MB-231 = test system: MDA-MB-231
MOLT-4 = test system: MOLT-4
Malme-3M = test system: Malme-3M
NCI-H522 = test system: NCI-H522
OVCAR-3 = test system: OVCAR-3
OVCAR-4 = test system: OVCAR-4
PC-3 = test system: PC-3
RPMI-8226 = test system: RPMI-8226
RXF 393 = test system: RXF 393
RXF 631 = test system: RXF 631
SF-268 = test system: SF-268
SF-295 = test system: SF-295
SF-539 = test system: SF-539
SK-MEL-2 = test system: SK-MEL-2
SK-MEL-5 = test system: SK-MEL-5
SK-OV-3 = test system: SK-OV-3
SN12C = test system: SN12C
SNB-75 = test system: SNB-75
SNB-78 = test system: SNB-78
UO-31 = test system: UO-31
XF498 = test system: XF498
786-0 = test system: 786-0
ACHN = test system: ACHN
COLO 205 = test system: COLO 205
HOP-62 = test system: HOP-62
HOP-92 = test system: HOP-92
HT-29 = test system: HT-29
KM12 = test system: KM12
NCI-H226 = test system: NCI-H226
NCI-H23 = test system: NCI-H23
NCI-H460 = test system: NCI-H460
OVCAR-5 = test system: OVCAR-5
OVCAR-8 = test system: OVCAR-8
SK-MEL-28 = test system: SK-MEL-28
SNB-19 = test system: SNB-19
SR = test system: SR
SW-620 = test system: SW-620
TK-10 = test system: TK-10
U-251 = test system: U-251
UACC-257 = test system: UACC-257
UACC-62 = test system: UACC-62
A498 = test system: A498
DLD-1 = test system: DLD-1

In the case of `CC1CCC2C(C)C(=O)OC3OC4(C)CCC1C32OO4` (stereo not given), the GI50 (A549) is reported as 89.1 µM (inactive), the GI50 (BT-549) is reported as 86.5 µM (inactive) and the GI50 (CAKI-1) is reported as > 100 µM (inactive). For the same molecule, the GI50 (CCRF-CEM) was 83 µM (inactive), the GI50 (DMS-114) was > 80.4 µM (inactive) and the GI50 (DMS-273) was > 100 µM (inactive). For the same molecule, the GI50 (EKVX) was > 97.1 µM (inactive), the GI50 (HCC 2998) was > 100 µM (inactive) and the GI50 (HCT-116) was 81.7 µM (inactive). The GI50 (HCT-15) was 98.4 µM, the GI50 (HL-60) was 37.4 µM (inactive) and the GI50 (HOP-18) was 61.8 µM (inactive). For the same molecule, the GI50 (IGROV-1) was > 88.9 µM (inactive), the GI50 (K562) was 33.1 µM (inactive) and the GI50 (KM-20L2) was > 100 µM (inactive). For the same molecule, the GI50 (LOX IMVI) was 97.9 µM (inactive), the GI50 (LXFL 529) was 65.5 µM (inactive) and the GI50 (M14) was > 100 µM (inactive). The GI50 (M19-MEL) was > 100 µM (inactive), the GI50 (MDA-MB-231) was 62.4 µM (inactive) and the GI50 (MOLT-4) was 66.1 µM (inactive). The GI50 (Malme-3M) was > 100 µM (inactive), the GI50 (NCI-H522) was 45.1 µM (inactive) and the GI50 (OVCAR-3) was > 67.3 µM (inactive). The GI50 (OVCAR-4) was > 72.8 µM (inactive), the GI50 (PC-3) was 66.8 µM (inactive) and the GI50 (RPMI-8226) was 53.2 µM (inactive). For the same molecule, the GI50 (RXF 393) was 72.9 µM (inactive), the GI50 (RXF 631) was > 100 µM (inactive) and the GI50 (SF-268) was > 100 µM (inactive). The GI50 (SF-295) was > 100 µM (inactive), the GI50 (SF-539) was > 100 µM (inactive) and the GI50 (SK-MEL-2) was > 100 µM (inactive). For the same molecule, the GI50 (SK-MEL-5) was > 96.2 µM (inactive), the GI50 (SK-OV-3) was > 100 µM (inactive) and the GI50 (SN12C) was > 92.3 µM (inactive). For the same molecule, the GI50 (SNB-75) was 61.7 µM (inactive), the GI50 (SNB-78) was > 100 µM (inactive) and the GI50 (UO-31) was 82.2 µM (inactive). For the same molecule, the GI50 (XF498) was > 100 µM (inactive).

With `CC1(C)C(=O)C(C)(C)C1=NNC(N)=S` the GI50 (786-0) was > 100 µM (inactive), the GI50 (A549) was > 100 µM (inactive) and the GI50 (ACHN) was > 100 µM (inactive). For the same molecule, the GI50 (CAKI-1) was > 100 µM (inactive), the GI50 (COLO 205) was > 100 µM (inactive) and the GI50 (DMS-114) was > 100 µM (inactive). For the same molecule, the GI50 (DMS-273) was > 100 µM (inactive), the GI50 (HCC 2998) was > 100 µM (inactive) and the GI50 (HCT-116) was > 100 µM (inactive). The GI50 (HCT-15) was > 100 µM, the GI50 (HL-60) was > 100 µM (inactive) and the GI50 (HOP-62) was > 100 µM (inactive). For the same molecule, the GI50 (HOP-92) was > 100 µM (inactive), the GI50 (HT-29) was > 100 µM (inactive) and the GI50 (IGROV-1) was > 100 µM (inactive). For the same molecule, the GI50 (K562) was > 100 µM (inactive), the GI50 (KM-20L2) was > 100 µM (inactive) and the GI50 (KM12) was > 100 µM (inactive). For the same molecule, the GI50 (LOX IMVI) was > 100 µM (inactive), the GI50 (LXFL 529) was > 100 µM (inactive) and the GI50 (M14) was > 100 µM (inactive). The GI50 (M19-MEL) was > 100 µM (inactive), the GI50 (MOLT-4) was > 100 µM (inactive) and the GI50 (Malme-3M) was > 100 µM (inactive). The GI50 (NCI-H226) was > 100 µM (inactive), the GI50 (NCI-H23) was > 100 µM (inactive) and the GI50 (NCI-H460) was > 100 µM (inactive). The GI50 (NCI-H522) was > 100 µM (inactive), the GI50 (OVCAR-3) was > 100 µM (inactive) and the GI50 (OVCAR-4) was > 100 µM (inactive). For the same molecule, the GI50 (OVCAR-5) was > 100 µM (inactive), the GI50 (OVCAR-8) was > 100 µM (inactive) and the GI50 (RPMI-8226) was > 100 µM (inactive). For the same molecule, the GI50 (RXF 393) was > 100 µM (inactive), the GI50 (RXF 631) was > 100 µM (inactive) and the GI50 (SF-268) was > 100 µM (inactive). The GI50 (SF-295) was > 100 µM (inactive), the GI50 (SF-539) was > 100 µM (inactive) and the GI50 (SK-MEL-28) was > 100 µM (inactive). For the same molecule, the GI50 (SK-MEL-5) was > 100 µM (inactive), the GI50 (SK-OV-3) was > 100 µM (inactive) and the GI50 (SN12C) was > 100 µM (inactive). The GI50 (SNB-19) was > 100 µM (inactive), the GI50 (SNB-75) was > 100 µM (inactive) and the GI50 (SNB-78) was > 100 µM (inactive). The GI50 (SR) was > 100 µM (inactive), the GI50 (SW-620) was > 100 µM (inactive) and the GI50 (TK-10) was > 100 µM (inactive). For the same molecule, the GI50 (U-251) was > 100 µM (inactive), the GI50 (UACC-257) was > 100 µM (inactive) and the GI50 (UACC-62) was > 100 µM (inactive). For the same molecule, the GI50 (UO-31) was > 100 µM (inactive) and the GI50 (XF498) was > 100 µM (inactive).

With `CCOC(=O)N1C/C(=C\c2ccc(N(C)C)cc2)C(=O)/C(=C/c2ccc(N(C)C)cc2)C1` the GI50 (786-0) was > 100 µM (inactive), the GI50 (A498) was > 100 µM (inactive) and the GI50 (A549) was > 100 µM (inactive). For the same molecule, the GI50 (ACHN) was > 100 µM (inactive), the GI50 (CAKI-1) was > 100 µM (inactive) and the GI50 (CCRF-CEM) was > 100 µM (inactive). For the same molecule, the GI50 (COLO 205) was > 100 µM (inactive), the GI50 (DLD-1) was > 100 µM (inactive) and the GI50 (DMS-114) was > 100 µM (inactive). The GI50 (DMS-273) was > 100 µM (inactive), the GI50 (EKVX) was > 100 µM (inactive) and the GI50 (HCC 2998) was > 100 µM (inactive). The GI50 (HCT-116) was > 100 µM (inactive), the GI50 (HCT-15) was > 100 µM and the GI50 (HL-60) was > 100 µM (inactive). The GI50 (HOP-18) was > 100 µM (inactive), the GI50 (HOP-62) was > 100 µM (inactive) and the GI50 (HOP-92) was > 100 µM (inactive). For the same molecule, the GI50 (HT-29) was > 100 µM (inactive), the GI50 (IGROV-1) was > 100 µM (inactive) and the GI50 (K562) was > 100 µM (inactive). The GI50 (KM-20L2) was > 100 µM (inactive), the GI50 (KM12) was > 100 µM (inactive) and the GI50 (LOX IMVI) was > 100 µM (inactive). For the same molecule, the GI50 (LXFL 529) was > 100 µM (inactive), the GI50 (M14) was > 100 µM (inactive) and the GI50 (M19-MEL) was > 100 µM (inactive). The GI50 (MOLT-4) was > 100 µM (inactive), the GI50 (Malme-3M) was > 100 µM (inactive) and the GI50 (NCI-H23) was > 100 µM (inactive). For the same molecule, the GI50 (NCI-H460) was > 100 µM (inactive), the GI50 (NCI-H522) was > 100 µM (inactive) and the GI50 (OVCAR-3) was > 100 µM (inactive). For the same molecule, the GI50 (OVCAR-4) was > 100 µM (inactive), the GI50 (OVCAR-5) was > 100 µM (inactive) and the GI50 (OVCAR-8) was > 100 µM (inactive). The GI50 (RPMI-8226) was > 100 µM (inactive), the GI50 (RXF 393) was > 100 µM (inactive) and the GI50 (RXF 631) was > 100 µM (inactive). For the same molecule, the GI50 (SF-268) was > 100 µM (inactive), the GI50 (SF-295) was > 100 µM (inactive) and the GI50 (SF-539) was > 100 µM (inactive). For the same molecule, the GI50 (SK-MEL-28) was > 100 µM (inactive), the GI50 (SK-MEL-2) was > 100 µM (inactive) and the GI50 (SK-MEL-5) was > 100 µM (inactive). The GI50 (SK-OV-3) was > 100 µM (inactive), the GI50 (SN12C) was > 100 µM (inactive) and the GI50 (SNB-19) was > 100 µM (inactive). The GI50 (SNB-75) was > 100 µM (inactive), the GI50 (SNB-78) was > 100 µM (inactive) and the GI50 (SR) was > 100 µM (inactive). The GI50 (SW-620) was > 100 µM (inactive), the GI50 (TK-10) was > 100 µM (inactive) and the GI50 (U-251) was > 100 µM (inactive). The GI50 (UACC-257) was > 100 µM (inactive), the GI50 (UACC-62) was > 100 µM (inactive) and the GI50 (UO-31) was > 100 µM (inactive).
